pEC50: −log10 of the molar value.
Target: human APJ receptor (Homo sapiens (Human), UniProt P35414)
Assay: biochemical
Type: biochemical
Settings: [35S]GTPγS binding, CHO membranes expressing human APJ receptor; read-out: Activity hAPJ SPA EC50 IP
Procedure, shortened: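 Membranes of a stable CHO line carrying human APJ (pFLAG-CMV-3) were used in a GTPγS binding format; buffer GDP, MgCl2 and NaCl were optimized, and plates were read after 90 min at RT.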

Sequence of human APJ receptor (P35414 whole entry): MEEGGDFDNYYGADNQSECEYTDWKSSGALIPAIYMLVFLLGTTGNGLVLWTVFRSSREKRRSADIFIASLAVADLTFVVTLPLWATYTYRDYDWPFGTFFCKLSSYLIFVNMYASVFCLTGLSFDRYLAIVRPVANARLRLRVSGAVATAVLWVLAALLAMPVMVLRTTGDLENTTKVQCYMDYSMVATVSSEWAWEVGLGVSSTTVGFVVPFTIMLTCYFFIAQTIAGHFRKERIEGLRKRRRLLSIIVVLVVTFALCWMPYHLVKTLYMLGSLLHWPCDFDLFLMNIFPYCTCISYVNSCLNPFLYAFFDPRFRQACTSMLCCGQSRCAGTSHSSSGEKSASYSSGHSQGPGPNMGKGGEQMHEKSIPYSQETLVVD

**Q.** “(1R,2S)-N-(4-(2,6-dimethoxyphenyl)-5-(1H-pyrro1o[2,3-b]pyridin-3-yl)-4H-1,2,4-triazol-3-yl)-1-methoxy-1-(5-methylpyrimidin-2-yl)propane-2-sulfonamide [Example 413.0]” was tested. Which pEC50 did it give?
**A.** 7.52

**Q.** `COc1cccc(OC)c1-n1c(NS(=O)(=O)[C@@H](C)[C@@H](OC(C)C)c2ncc(C)cn2)nnc1-c1ccn(C)n1` [Example 355.0, (1S,2S)-N-(4-(2,6-dimethoxyphenyl)-5-(1-methyl-1H-pyrazol-3-yl)-4H-1,2,4-triazol-3-yl)-1-isopropoxy-1-(5-methylpyrimidin-2-yl)propane-2-sulfonamide] was tested. Which pEC50 did it give?
**A.** 9.33

**Q.** How did the pEC50 turn out when `COc1cccc(OC)c1-n1c(NS(=O)(=O)[C@@H](C)[C@@H](OC(C)C)c2ncc(Cl)cn2)nnc1-c1cnn2c1CCC2` [Example 447.0, (1S,2S)-1-(5-chloropyrimidin-2-yl)-N-(5-(5,6-dihydro-4H-pyrrolo[1,2-b]pyrazol-3-yl)-4-(2,6-dimethoxyphenyl)-4H-1,2,4-triazol-3-yl)-1-isopropoxypropane-2-sulfonamide] was run?
**A.** 9.92

**Q.** With `COc1cncc(-c2nnc(NS(=O)(=O)[C@@H](C)[C@H](OC)c3ncc(C)cn3)n2-c2c(OC)cccc2OC)n1` [Example 343.0, (1R,2S)-N-(4-(2,6-dimethoxyphenyl)-5-(6-methoxy-2-pyrazinyl)-4H-1,2,4-triazol-3-yl)-1-methoxy-1-(5-methyl-2-pyrimidinyl)-2-propanesulfonamide] as the compound, how does the pEC50 read?
**A.** 8.59

**Q.** How did the pEC50 turn out when `COc1cccc(OC)c1-n1c(NS(=O)(=O)[C@@H](C)[C@H](OC)c2ncc(C)cn2)nnc1-c1ncnc2cc[nH]c12` [Example 435.0, (1R,2S)-N-(4-(2,6-dimethoxyphenyl)-5-(5H-pyrrolo[3,2-d]pyrimidin-4-yl)-4H-1,2,4-triazol-3-yl)-1-methoxy-1-(5-methylpyrimidin-2-yl)propane-2-sulfonamide] was run?
**A.** 6.74

**Q.** How did the pEC50 turn out when `COCC1(n2c(NS(=O)(=O)[C@@H](C)[C@H](OC)c3ncc(Cl)cn3)nnc2-c2cnn3ccccc23)CC1` [Example 509.0, (1R,2S)-1-(5-chloropyrimidin-2-yl)-1-methoxy-N-(4-(1-(methoxymethyl)cyclopropyl)-5-(pyrazolo[1,5-a]pyridin-3-yl)-4H-1,2,4-triazol-3-yl)propane-2-sulfonamide] was run?
**A.** 8.39

**Q.** With `COc1cccc(OC)c1-n1c(NS(=O)(=O)[C@@H]2CCCN(c3ncc(F)cn3)C2)nnc1-c1ccn(C)n1` (single isomer, unassigned) [Example 262.0, (3R)-N-(4-(2,6-dimethoxyphenyl)-5-(1-methyl-1H-pyrazol-3-yl)-4H-1,2,4-triazol-3-yl)-1-(5-fluoro-2-pyrimidinyl)-3-piperidinesulfonamide or (3S)-N-(4-(2,6-dimethoxyphenyl)-5-(1-methyl-1H-pyrazol-3-yl)-4H-1,2,4-triazol-3-yl)-1-(5-fluoro-2-pyrimidinyl)-3-piperidinesulfonamide] as the compound, how does the pEC50 read?
**A.** 8.32

**Q.** With “(R)-N-(4-(2,6-dimethoxyphenyl)-5-(1H-pyrazol-3-yl)-4H-1,2,4-triazol-3-yl)-1-(5-fluoropyrimidin-2-yl)propane-2-sulfonamide and (S)-N-(4-(2,6-dimethoxyphenyl)-5-(1H-pyrazol-3-yl)-4H-1,2,4-triazol-3-yl)-1-(5-fluoropyrimidin-2-yl)propane-2-sulfonamide [Example 71.0]” as the compound, how does the pEC50 read?
**A.** 7.39

**Q.** `COc1cccc(OC)c1-n1c(NS(=O)(=O)[C@H](C)Cc2ncc(F)cn2)nnc1-c1conc1C` (single isomer, unassigned) [Example 65.0, (R)-N-(4-(2,6-dimethoxyphenyl)-5-(3-methylisoxazol-4-yl)-4H-1,2,4-triazol-3-yl)-1-(5-fluoropyrimidin-2-yl)propane-2-sulfonamide or (S)-N-(4-(2,6-dimethoxyphenyl)-5-(3-methylisoxazol-4-yl)-4H-1,2,4-triazol-3-yl)-1-(5-fluoropyrimidin-2-yl)propane-2-sulfonamide] was tested. Which pEC50 did it give?
**A.** 7.12

**Q.** How did the pEC50 turn out when `COc1cccc(OC)c1-n1c(NS(=O)(=O)CCc2ccc(Cl)cc2)nnc1-c1ncc(C)s1` [Example 143.0, 2-(4-chlorophenyl)-N-(4-(2,6-dimethoxyphenyl)-5-(5-methylthiazol-2-yl)-4H-1,2,4-triazol-3-yl)ethanesulfonamide] was run?
**A.** 6.63

**Q.** With `COc1ncnc(OC)c1-n1c(NS(=O)(=O)[C@@H](C)[C@H](C)c2ccc(Cl)cn2)nnc1-c1cnn(C)c1` [Example 535.0, (2S,3R)-3-(5-chloro-2-pyridinyl)-N-(4-(4,6-dimethoxy-5-pyrimidinyl)-5-(1-methyl-1H-pyrazol-4-yl)-4H-1,2,4-triazol-3-yl)-2-butanesulfonamide] as the compound, how does the pEC50 read?
**A.** 9.18

**Q.** `COc1cccc(OC)c1-n1c(NS(=O)(=O)[C@@H](C)[C@H](C)c2ncc(F)cn2)nnc1-c1cnn(C)c1` [Example 212.0, (2S,3R)-N-(4-(2,6-dimethoxyphenyl)-5-(1-methyl-1H-pyrazol-4-yl)-4H-1,2,4-triazol-3-yl)-3-(5-fluoro-2-pyrimidinyl)-2-butanesulfonamide] was tested. Which pEC50 did it give?
**A.** 9.38

**Q.** How did the pEC50 turn out when `COc1cccc(OC)c1-n1c(NS(=O)(=O)[C@@H](C)[C@H](OC)c2ncc(C)cn2)nnc1-c1cnccn1` [Example 337.0, (1R,2S)-N-(4-(2,6-dimethoxyphenyl)-5-(2-pyrazinyl)-4H-1,2,4-triazol-3-yl)-1-methoxy-1-(5-methyl-2-pyrimidinyl)-2-propanesulfonamide] was run?
**A.** 8.17

**Q.** How did the pEC50 turn out when `COc1ncnc(OC)c1-n1c(NS(=O)(=O)[C@@H](C)[C@H](C)c2ncc(C)cn2)nnc1-c1noc2ccccc12` [Example 88.0, (2S,3R)-N-(5-(benzo[d]isoxazol-3-yl)-4-(4,6-dimethoxypyrimidin-5-yl)-4H-1,2,4-triazol-3-yl)-3-(5-methylpyrimidin-2-yl)butane-2-sulfonamide] was run?
**A.** 7.30

**Q.** `COc1cccc(OC)c1-n1c(NS(=O)(=O)CCc2ccc(F)cc2C#N)nnc1-c1csc(C)n1` [Example 148.0, 2-(2-cyano-4-fluorophenyl)-N-(4-(2,6-dimethoxyphenyl)-5-(2-methylthiazol-4-yl)-4H-1,2,4-triazol-3-yl)ethanesulfonamide] was tested. Which pEC50 did it give?
**A.** 7.51

**Q.** `COc1cccc(OC)c1-n1c(NS(=O)(=O)[C@H](C)[C@@H](OC)c2ccc(C#N)cc2C#N)nnc1-c1ccn(C)n1` (single isomer, unassigned) [Example 266.0, (1S,2R)-1-(2,4-dicyanophenyl)-N-(4-(2,6-dimethoxyphenyl)-5-(1-methyl-1H-pyrazol-3-yl)-4H-1,2,4-triazol-3-yl)-1-methoxy-2-propanesulfonamide or (1R,2S)-1-(2,4-dicyanophenyl)-N-(4-(2,6-dimethoxyphenyl)-5-(1-methyl-H-pyrazol-3-yl)-4H-1,2,4-triazol-3-yl)-1-methoxy-2-propanesulfonamide] was tested. Which pEC50 did it give?
**A.** 9.40

**Q.** `COc1cccc(OC)c1-n1c(NS(=O)(=O)[C@@H](C)[C@H](OC)c2ncc(Cl)cn2)nnc1-c1ncnc2cc[nH]c12` [Example 434.0, (1R,2S)-1-(5-chloropyrimidin-2-yl)-N-(4-(2,6-dimethoxyphenyl)-5-(5H-pyrrolo[3,2-d]pyrimidin-4-yl)-4H-1,2,4-triazol-3-yl)-1-methoxypropane-2-sulfonamide] was tested. Which pEC50 did it give?
**A.** 8.07

**Q.** With `COc1cccc(OC)c1-n1c(NS(=O)(=O)CCc2ncc(F)cn2)nnc1-c1nc(C(C)C)cs1` [Example 96.0, N-(4-(2,6-dimethoxyphenyl)-5-(4-isopropylthiazol-2-yl)-4H-1,2,4-triazol-3-yl)-2-(5-fluoropyrimidin-2-yl)ethanesulfonamide] as the compound, how does the pEC50 read?
**A.** 8.15

**Q.** `COc1cnc([C@@H](OC)[C@H](C)S(=O)(=O)Nc2nnc(-c3ccn(C)n3)n2-c2c(OC)ncnc2OC)cn1` [Example 460.0, (1R,2S)-N-(4-(4,6-dimethoxy-5-pyrimidinyl)-5-(1-methyl-1H-pyrazol-3-yl)-4H-1,2,4-triazol-3-yl)-1-methoxy-1-(5-methoxy-2-pyrazinyl)-2-propanesulfonamide] was tested. Which pEC50 did it give?
**A.** 8.59

**Q.** `COc1cnc([C@@H](C)[C@H](C)S(=O)(=O)Nc2nnc(-c3ccn(C)n3)n2-c2c(OC)cccc2OC)nc1` [Example 295.0, (2S,3R)-N-(4-(2,6-dimethoxyphenyl)-5-(1-methyl-1H-pyrazol-3-yl)-4H-1,2,4-triazol-3-yl)-3-(5-methoxy-2-pyrimidinyl)-2-butanesulfonamide] was tested. Which pEC50 did it give?
**A.** 9.40

**Q.** How did the pEC50 turn out when `COc1cccc(OC)c1-n1c(NS(=O)(=O)[C@@H](C)[C@H](C)c2ncc(C)cn2)nnc1-c1cc(C)[nH]n1` [Example 346.0, (2S,3R)-N-(4-(2,6-dimethoxyphenyl)-5-(5-methyl-1H-pyrazol-3-yl)-4H-1,2,4-triazol-3-yl)-3-(5-methyl-2-pyrimidinyl)-2-butanesulfonamide] was run?
**A.** 8.82

**Q.** How did the pEC50 turn out when `CO[C@H](c1ncc(Cl)cn1)[C@H](C)S(=O)(=O)Nc1nnc(-c2cnn3c2CCC3)n1C1CC1` [Example 478.0] was run?
**A.** 7.96

**Q.** With `CO[C@H](c1cnc(C)cn1)[C@H](C)S(=O)(=O)Nc1nnc(-c2ccn(C)n2)n1-c1c(F)cccc1F` [Example 232.0, (1R,2S)-N-(4-(2,6-difluorophenyl)-5-(1-methyl-1H-pyrazol-3-yl)-4H-1,2,4-triazol-3-yl)-1-methoxy-1-(5-methyl-2-pyrazinyl)-2-propanesulfonamide] as the compound, how does the pEC50 read?
**A.** 7.27

**Q.** With `COc1ccccc1-n1c(NS(=O)(=O)CCc2ccc(Cl)cc2)nnc1-c1ccc(F)s1` [Example 239.0, 2-(4-chlorophenyl)-N-(5-(5-fluorothiophen-2-yl)-4-(2-methoxyphenyl)-4H-1,2,4-triazol-3-yl)ethanesulfonamide] as the compound, how does the pEC50 read?
**A.** 6.68

**Q.** With `COc1cccc(OC)c1-n1c(NS(=O)(=O)[C@H](C)[C@H](C)c2ncc(F)cn2)nnc1-c1nc(C)cs1` (single isomer, unassigned) [Example 165.0] as the compound, how does the pEC50 read?
**A.** 6.96

**Q.** With `Cc1cnc([C@@H](C)[C@H](C)S(=O)(=O)Nc2nnc(-c3noc4ccccc34)n2C2CCOCC2)nc1` [Example 84.0, (2S,3R)-N-(5-(benzo[d]isoxazol-3-yl)-4-(tetrahydro-2H-pyran-4-yl)-4H-1,2,4-triazol-3-yl)-3-(5-methylpyrimidin-2-yl)butane-2-sulfonamide] as the compound, how does the pEC50 read?
**A.** 6.59

— patent publication US11046680B1, “Heteroaryl-substituted triazoles as APJ receptor agonists” (priority 2016, dated 2021)
